This assay concerns the target T1, KRAS-G12D protein (Homo sapiens, UniProt P01116, G12D).
T1 construct: host or cells: Aspc-1 cells
The experiment in a line: KRAS-G12D protein degradation study in Aspc-1 cells (western blot). Particulars: for inhibition at 0.05 µM / inhibition at 0.1 µM / inhibition at 1 µM: ASPC1, 24 h; for inhibition at 0.05 µM: Aspc-1 cells treated with 50 nM compound, read-out: Rate of degradation (KRAS^G12D); for inhibition at 0.1 µM / inhibition at 1 µM: read-out: Rate of protein degradation (KRAS^G12D); for DC50: Aspc-1 cells, read-out: DC50 of test compound-induced KRAS^G12D protein degradation; for inhibition at 1 µM: Aspc-1 cells treated with 1 μM compound. It counts as cell-based. Here is the method:
Aspc-1 (Cobioer, CBP60546) cells in exponential growth phase were inoculated on a 6-well cell culture plate (Corning, 3516) at density of 1E6/well; and cells in the plate were cultured in 37° C. incubator containing 5% carbon dioxide. The next day, test compounds were dissolved in DMSO (Sigma, RNBF5902) for the preparation of a 10 mM concentration stock solution. The stock solution was diluted with complete medium (RPMI-1640 supplemented with 10% fetal bovine serum, 1% penicillin-streptomycin), yielding working solutions of various concentrations. The plate, after the addition of compounds, was placed in a 5% carbon dioxide incubator, and incubated at 37° C. for 24 hours (final DMSO concentration was 0.1%). The plate was then removed from the incubator, and the cells were washed twice with precooled PBS (Gibco, 14190250), followed by addition of 80 μL RIPA lysis buffer (containing protease inhibitor (Invitrogen™, AM2696)) to each well. The adherent cells were scraped off with a cell scraper, and the cell lysate was transferred to a 1.5 mL centrifuge tube followed with a 30-minute incubation on ice. The lysate was then clarified with centrifugation at 14000 rpm for 10 min at 4° C. The supernatant was transferred into a new 1.5 mL centrifuge tube, and protein concentration was measured with BCA protein detection kit (Thermo Fisher, 23225). KRAS-G12D protein level was assessed by western blot.
A mixture of cell lysate (40 μL) and loading buffer (10 μL 5×SDS (Beyotime, P0015L)) was denatured in a water bath at 95° C. for 10 min. The denatured protein sample, at 30 μL/well, was loaded into the corresponding well of a 4-20% Bis-Tris gel (Kingsley, M00656). Protein samples were initially electrophoresed at 80 V for 30 minutes, followed by 120 V for 40 minutes, until the bromophenol blue strip ran to an appropriate position. After electrophoresis, iBlot2 (Life Technologies, IB21001) was used to transfer the separated samples onto PVDF film. The PVDF membrane was washed with double-distilled water and then blocked in TBST (Thermo Scientific, 28360) buffer containing 5% non-fat milk, for 2 hours. Blocked membrane was rinsed with tris-buffered saline tween-20 (Thermo Scientific, 28360, TBST) three times, 10 minutes each. Membrane was then incubated with 1:1000 diluted KRAS primary antibody (CST, cat #14429S) overnight at 4° C. Membrane was rinsed as described previously followed by 1 hour incubation of secondary antibody at room temperature. After washing the film three times with TBST, ECL color developing solution was applied, and image was captured with Biorad Chemi Doc gel imager. The band gray value was quantified (Image Lab), and protein degradation level was calculated according to the following formula:
Level of RAS protein expression=(RAS-compound/GAPDH)/(RAS-DMSO/GAPDH)
Level of degradation (%)=(1−Rate of RAS protein expression)×100
The symbols “−”, “+”, “++”, and “+++” indicate that the degradation level of KRAS^G12D protein induced by the test compounds was 10% or less, 11 to 30%, 31 to 60%, and greater than 60%, respectively.
Half-maximum degradation concentrations (DC50s) of exemplary test compounds were calculated using GraphPad Prism and their values are shown in Table 6. The symbols “++++”, “+++”, “++” and “+” indicate DC50 equal or less than 10 nM, 11-50 nM, 51-100 nM, and 101-200 nM, respectively.

The mark [1] stands for this setting: Aspc-1 cells treated with 0.1 μM compound, 24 hours.

T1 sequence (P01116 1-188 isoform P01116-2 G12D): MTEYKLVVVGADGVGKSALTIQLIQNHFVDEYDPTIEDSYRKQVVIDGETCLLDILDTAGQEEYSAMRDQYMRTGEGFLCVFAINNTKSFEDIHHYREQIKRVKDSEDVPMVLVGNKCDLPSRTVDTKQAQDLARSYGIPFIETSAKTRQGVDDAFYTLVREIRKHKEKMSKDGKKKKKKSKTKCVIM

Turning to `C#Cc1c(F)ccc2cc(O)cc(-c3ncc4c(N5CC6CCC(C5)N6)nc(OCC5(CN6CCC(C(=O)Nc7ccc8c(C9CCC(=O)NC9=O)nn(C)c8c7)CC6)CC5)nc4c3F)c12` (centres unmarked) [Compound 159], the inhibition at 0.05 µM (24 hours) was in the range of 31 to 60%.

For the compound `C#Cc1c(F)ccc2cc(O)cc(-c3ncc4c(N5CC6CCC(C5)N6)nc(OCCN5CCN(C(=O)CCCCCOc6cc(-c7scnc7C)ccc6CNC(=O)[C@@H]6C[C@@H](O)CN6C(=O)[C@@H](NC(=O)C6(F)CC6)C(C)(C)C)CC5)nc4c3F)c12` [Compound 132], under setting [1], the inhibition at 0.1 µM fell in the range of 11 to 30%.

Consider `C#Cc1c(F)ccc2cc(O)cc(-c3ncc4c(N5CC6CCC(C5)N6)nc(OCC5(CN6CCC7(CC6)CC(N6CC=C(c8cccc9c8n(C)c(=O)n9C8CCC(=O)NC8=O)CC6)C7)CC5)nc4c3F)c12` (centres unmarked) [Compound 161], for which the inhibition at 0.05 µM (24 hours) lay within 31 to 60%.

Consider `C#Cc1c(F)ccc2cc(O)cc(-c3ncc4c(N5CC6CCC(C5)N6)nc(OCCCN5CCC(C(=O)N6CCC(N7CCC(c8ccc9c(C%10CCC(=O)NC%10=O)nn(C)c9c8)CC7)CC6)CC5)nc4c3F)c12` (centres unmarked) [Compound 75], for which the DC50 was less than 10 nM. Further, the inhibition at 0.1 µM under setting [1] was more than 60%.

Take `C#Cc1c(F)ccc2cc(O)cc(-c3ncc4c(N5CC6CCC(C5)N6)nc(OCC5(CN6CCC(CN7CCN(c8cc9c(cc8F)C(=O)N(C8CCC(=O)NC8=O)C9=O)CC7)CC6)CC5)nc4c3F)c12` (centres unmarked) [Compound 141]: where the note is “24 hours”, the inhibition at 0.05 µM is 11 to 30%. Further, the inhibition at 0.1 µM under setting [1] is more than 60%.

Regarding `C#Cc1c(F)ccc2cc(O)cc(-c3ncc4c(N5CC6CCC(C5)N6)nc(OCC5(CN6CCC7(CC6)CCN(c6ccc8c(c6)C(=O)N(C6CCC(=O)NC6=O)C8=O)CC7)CC5)nc4c3F)c12` (centres unmarked) [Compound 127], the inhibition at 0.05 µM (24 hours) is more than 60%.

On to `C#Cc1c(F)ccc2cc(O)cc(-c3ncc4c(N5CC6CCC(C5)N6)nc(OC5CCN(CCCCCCCCCC(=O)N6CCN(C(=O)C[C@H](NC(=O)[C@@H]7CC(O)CN7C(=O)[C@@H](NC(=O)C7(F)CC7)C(C)(C)C)c7ccc(-c8scnc8C)cc7)CC6)C5)nc4c3F)c12` (stereo in doubt) [Compound 105], for which the inhibition at 0.1 µM under setting [1] is 31 to 60%.

For the compound `C#Cc1c(F)ccc2cc(O)cc(-c3ncc4c(N5CC6CCC(C5)N6)nc(OC5CCN(CCOCCOCC(=O)N[C@H](C(=O)N6C[C@H](O)C[C@H]6C(=O)NCc6ccc(-c7scnc7C)cc6)C(C)(C)C)CC5)nc4c3F)c12` [Compound 53], the inhibition at 1 µM (24 hours) lay in the range of 11 to 30%.

As to `C#Cc1c(F)ccc2cc(O)cc(-c3ncc4c(N5CC6CCC(C5)N6)nc(OCC5(CN6CCC(N7CCC(c8ccc9c(C%10CCC(=O)NC%10=O)nn(C)c9c8)CC7)CC6)CC5)nc4c3F)c12` (centres unmarked) [Compound 113], the DC50 was less than 10 nM. In addition, the inhibition at 0.1 µM under setting [1] was more than 60%.

In the case of `C#Cc1c(F)ccc2cc(O)cc(-c3ncc4c(N5CC6CCC(C5)N6)nc(OCC5(CN6CCC7(CC6)CCN(c6ccc(NC8CCC(=O)NC8=O)cc6F)CC7)CC5)nc4c3F)c12` (centres unmarked) [Compound 110], the half-maximal degradation concentration (DC50) was less than 10 nM. Also, under setting [1], the inhibition at 0.1 µM lay in the range of 31 to 60%.

Regarding `CCc1c(F)ccc2cc(O)cc(-c3ncc4c(N5CC6CCC(C5)N6)nc(OCC5(CN6CCC7(CC6)CC(N6CCC(c8ccc9c(C%10CCC(=O)NC%10=O)nn(C)c9c8)CC6)C7)CC5)nc4c3F)c12` (centres unmarked) [Compound 81], under setting [1], the inhibition at 0.1 µM was in the range of 31 to 60%.

For the compound `C#Cc1c(F)ccc2cc(O)cc(-c3ncc4c(N5CC6CCC(C5)N6)nc(OCC5(CN6CCC7(CC6)CC(N6CCC(c8cccc(C9CCC(=O)NC9=O)c8)CC6)C7)CC5)nc4c3F)c12` (centres unmarked) [Compound 162], the inhibition at 0.05 µM (24 hours) was not above 10%.

As to `Cn1nc(C2CCC(=O)NC2=O)c2ccc(C3CCN(CC(=O)N4CCN(CC5(COc6nc(N7CC8CCC(C7)N8)c7cnc(-c8cc(N)cc(Cl)c8C(F)(F)F)c(F)c7n6)CC5)CC4)CC3)cc21` (centres unmarked) [Compound 128], the inhibition at 0.05 µM (24 hours) is more than 60%.

`C#Cc1c(F)ccc2cc(O)cc(-c3ncc4c(N5CC6CCC(C5)N6)nc(O[C@H]5CCN(CCCCCCCCCCC(=O)N[C@H](C(=O)N6C[C@H](O)C[C@H]6C(=O)N[C@@H](C)c6ccc(-c7scnc7C)cc6)C(C)(C)C)C5)nc4c3F)c12` [Compound 85]: under setting [1], the inhibition at 0.1 µM is more than 60%.

`C#Cc1c(F)ccc2cc(O)cc(-c3ncc4c(N5CC6CCC(C5)N6)nc(OCC5(CN6CCC(N7CCN(c8ccc(NC9CCC(=O)NC9=O)cc8F)CC7)CC6)CC5)nc4c3F)c12` (centres unmarked) [Compound 142]: for the setting “24 hours”, the inhibition at 0.05 µM lay within 31 to 60%.

On to `C#Cc1c(F)ccc2cc(O)cc(-c3ncc4c(N5CC6CCC(C5)N6)nc(OCCCN5CCN(CC(=O)N6CCN(C(=O)C[C@H](NC(=O)[C@@H]7C[C@@H](O)CN7C(=O)[C@@H](NC(=O)C7(F)CC7)C(C)(C)C)c7ccc(-c8scnc8C)cc7)CC6)CC5)nc4c3F)c12` [Compound 63], for which, under setting [1], the inhibition at 0.1 µM is not above 10%. Moreover, the inhibition at 1 µM (24 hours) lay within 11 to 30%.

For `C#Cc1c(F)ccc2cc(O)cc(-c3ncc4c(N5CC6CCC(C5)N6)nc(OCC5(CN6CCC7(CC6)CC(N6CCC(c8ccc(C9CCC(=O)NC9=O)cc8)CC6)C7)CC5)nc4c3F)c12` (centres unmarked) [Compound 166], the inhibition at 0.05 µM (24 hours) is more than 60%.

For `C#Cc1c(F)ccc2cc(O)cc(-c3ncc4c(N5CC6CCC(C5)N6)nc(OCCCN5CCN(CC(=O)N6CCN(c7cccc8c7C(=O)N(C7CCC(=O)NC7=O)C8=O)CC6)CC5)nc4c3F)c12` (centres unmarked) [Compound 62], the inhibition at 0.1 µM under setting [1] is not above 10%. In addition, under “24 hours”, the inhibition at 1 µM was not above 10%.

As to `C#Cc1c(F)ccc2cc(O)cc(-c3ncc4c(N5CC6CCC(C5)N6)nc(OC5CCN(CC(=O)N6CCC7(CC6)CC(N6CCC(c8ccc9c(C%10CCC(=O)NC%10=O)nn(C)c9c8)CC6)C7)C5)nc4c3F)c12` (centres unmarked) [Compound 101], the “Rate of protein degradation (KRAS^G12D)” value under setting [1] is recorded as “+ (11 to 30%)”.

Consider `C#Cc1c(F)ccc2cc(O)cc(-c3ncc4c(N5CC6CCC(C5)N6)nc(OCC5(CN6CCN(C(=O)CN7CCN(c8ccc(NC9CCC(=O)NC9=O)cc8F)CC7)CC6)CC5)nc4c3F)c12` (centres unmarked) [Compound 108], for which the inhibition at 0.1 µM under setting [1] is not above 10%.

On to `C#Cc1c(F)ccc2cc(O)cc(-c3ncc4c(N5CC6CCC(C5)N6)nc(OCC5(CN(C)C(=O)CC(C)(C)CC(=O)N6CCC(c7ccc8c(C9CCC(=O)NC9=O)nn(C)c8c7)CC6)CC5)nc4c3F)c12` (centres unmarked) [Compound 137], for which, under “24 hours”, the inhibition at 0.05 µM was not above 10%.

As for `C#Cc1c(F)ccc2cc(O)cc(-c3ncc4c(N5CC6CCC(C5)N6)nc(OCC5(CN6CCC7(CC6)CC(N6CCN(c8cc9c(cc8F)C(=O)N(C8CCC(=O)NC8=O)C9=O)CC6)C7)CC5)nc4c3F)c12` (centres unmarked) [Compound 152], the inhibition at 0.05 µM (24 hours) lay in the range of 31 to 60%.

Turning to `CCc1c(F)ccc2cc(O)cc(-c3ncc4c(N5CC6CCC(C5)N6)nc(OCC56CCCN5[C@@H](COC(=O)NCCCCCCCC(=O)N[C@H](C(=O)N5C[C@H](O)C[C@H]5C(=O)N[C@@H](C)c5ccc(-c7scnc7C)cc5)C(C)(C)C)CC6)nc4c3F)c12` (some centres unmarked) [Compound 68], the inhibition at 0.1 µM under setting [1] is 31 to 60%. Besides, the inhibition at 1 µM (24 hours) was more than 60%.

For `C#Cc1c(F)ccc2cc(O)cc(-c3ncc4c(N5CC6CCC(C5)N6)nc(OCC56CCCN5[C@@H](COC(=O)NCCCCCCCCCCC(=O)N[C@H](C(=O)N5C[C@H](O)C[C@H]5C(=O)N[C@@H](C)c5ccc(-c7scnc7C)cc5)C(C)(C)C)CC6)nc4c3F)c12` (some centres unmarked) [Compound 93], the DC50 fell in the range of 51 to 100 nM. Further, the inhibition at 0.1 µM under setting [1] was more than 60%.

Consider `CCc1c(F)ccc2cc(O)cc(-c3ncc4c(N5CC6CCC(C5)N6)nc(OCC56CCCN5[C@@H](COC(=O)NCCOCCOCCC(=O)N[C@H](C(=O)N5C[C@H](O)C[C@H]5C(=O)N[C@@H](C)c5ccc(-c7scnc7C)cc5)C(C)(C)C)CC6)nc4c3F)c12` (some centres unmarked) [Compound 58], for which the inhibition at 0.1 µM under setting [1] was in the range of 11 to 30%. Moreover, the inhibition at 1 µM (24 hours) lay within 31 to 60%.

For the compound `C#Cc1c(F)ccc2cc(O)cc(-c3ncc4c(N5CC6CCC(C5)N6)nc(OCC5(CN6CCN(CC7CCN(c8ccc(NC9CCC(=O)NC9=O)cc8F)CC7)CC6)CC5)nc4c3F)c12` (centres unmarked) [Compound 109], the inhibition at 0.1 µM under setting [1] was 31 to 60%.

One may read the DC50 as the concentration giving 50% degradation.

(Values after patent US20230321253A1, “BIFUNCTIONAL COMPOUNDS AND PHARMACEUTICAL USES THEREOF” (RISEN (SUZHOU) PHARMA TECH CO., LTD., priority 2022, published 2023).)
